Reference: US12310973B2, “Administration and dosage of diaminophenothiazines” (WisTa Laboratories Ltd., priority 2016, dated 2025)

Legend:
[1] = system: mild to moderate AD patients; experiment: Phase 3 trial in mild to moderate AD: safety outcomes (adverse events); type: in vivo, human
Description: Patients were monitored throughout for adverse events (AEs) and clinical laboratory testing, physical and neurological examinations and 12-lead electrocardiograms were performed at all clinic visits (screening, baseline and Weeks 2, 6, 13, 26, 39, 52, 65 and 69). Patients were also assessed at all visits for suicidal ideation and intent, and were systematically assessed for signs of serotonin toxicity.

[2] = system: Mild AD patients; experiment: Further 18-month Phase 3 trial in mild AD; type: in vivo, human
Description: To examine the potential efficacy of LMTM as monotherapy in non-randomised observational cohort analyses as modified primary outcomes in an 18-months Phase 3 trial in mild AD.
Mild AD patients (n=800) were randomly assigned to 100 mg twice a day or 4 mg twice a day.
The Statistical Analysis Plan was revised in light of Example 3 (which completed earlier) prior to database lock and unblinding, to compare the 100 mg twice a day as monotherapy subgroup (n=79) versus 4 mg twice a day as randomised (n=396), and 4 mg twice a day as monotherapy (n=76) versus 4 mg twice a day as add-on therapy (n=297), with strong control of family-wise type I error.
We therefore modified the primary analyses and treatment comparisons in the study described in this Example (prior to database lock and unblinding) to investigate whether the monotherapy differences could be confirmed as observational cohort comparisons defined as primary outcomes with strong control of family-wise type I error in the second independent study. The monotherapy cohort comparisons which were of particular interest in light of the earlier study were: (A) 100 mg twice a day a monotherapy compared with the controls as originally randomised, and (B) 4 mg twice a day as monotherapy compared with the same dose as add-on to standard AD treatments.

[3] = high dose LMTM (75 or 125 mg b.i.d.)

## CN(C)c1ccc2c(c1)Sc1cc(N(C)C)ccc1N2 [LMTM, leuco-methythioninium bis(hydromethanesulfonate)]
[1]; 125 mg b.i.d. (n = 264)
  Pollakiuria, number of patients: 18
  Renal and urinary disorders, % of patients: (24.6%)
  Renal and urinary disorders, number of patients: 65
  Respiratory, thoracic and mediastinal disorders, % of patients: (8.3%)
  Respiratory, thoracic and mediastinal disorders, number of patients: 22
  Urinary incontinence, % of patients: (4.5%)
  Urinary incontinence, number of patients: 12
  Urinary tract infection, % of patients: (9.8%)
  Urinary tract infection, number of patients: 26
  Vomiting, % of patients: (6.8%)
  Vomiting, number of patients: 18
[1]; 125 mg b.i.d., at 6 weeks
  Maximum mean change in haemoglobin from baseline: -0.93 g/L
[1]; % of the cases, all arms
  Non-fatal SAEs possibly related to treatment: 14%
[1]; all arms
  Patients with transient responses indicating a wish to be dead (Columbia Suicide Severity Rating Scale): 26 patients
[1]; all arms, evenly distributed between the three treatment groups
  Patients with one or more other non-fatal serious adverse events (SAEs): 97 patients
[1]; all arms, no dose relationship
  Patients who developed ARIA during the study, frequency: < 1%
  Patients who developed ARIA during the study, total: 8 patients
[1]; all arms, none related to treatment
  Patients who died during the study: 9 patients
[1]; all doses
  Haemolytic anemia cases: no case of haemolytic anemia
[1]; both treated with LMTM 75 mg b.i.d., no concomitant serotonergic drug
  Patients with transient symptoms consistent with serotonergic excess: 2 patients
[1]; control 4 mg b.i.d. (n = 354)
  AESI: ARIA, %: (0.8) %
  AESI: Methemoglobinemia, hemolytic anemia, and/or Heinz bodies, %: (0.3) %
  AESI: “Serotonin syndrome”, %: (0) %
  Anemia, % of patients: (2.8%)
  Anemia, number of patients: 10
  At least one TEAE, % of patients: (83.6%)
  At least one TEAE, number of patients: 296
  Blood and lymphatic system disorders, % of patients: (4.8%)
  Blood and lymphatic system disorders, number of patients: 17
  Blood folate decreased, % of patients: (5.9%)
  Blood folate decreased, number of patients: 21
  Cough, % of patients: (3.4%)
  Cough, number of patients: 12
  Deaths, %: (0.8) %
  Diarrhea, % of patients: (9.3%)
  Diarrhea, number of patients: 33
  Dysuria, % of patients: (0.8%)
  Dysuria, number of patients: 3
  Gastrointestinal disorders, % of patients: (24.6%)
  Gastrointestinal disorders, number of patients: 87
  Infections and infestations, % of patients: (24.9%)
  Infections and infestations, number of patients: 88
  Investigations, % of patients: (22.6%)
  Investigations, number of patients: 80
  Nausea, % of patients: (4.0%)
  Nausea, number of patients: 14
  Other SUSARs, %: (0.6) %
  Pollakiuria, % of patients: (1.7%)
  Pollakiuria, number of patients: 6
  Renal and urinary disorders, % of patients: (8.2%)
  Renal and urinary disorders, number of patients: 29
  Respiratory, thoracic and mediastinal disorders, % of patients: (7.9%)
  Respiratory, thoracic and mediastinal disorders, number of patients: 28
  Urinary incontinence, % of patients: (2.5%)
  Urinary incontinence, number of patients: 9
  Urinary tract infection, % of patients: (8.2%)
  Urinary tract infection, number of patients: 29
  Vomiting, % of patients: (0.6%)
  Vomiting, number of patients: 2
[1]; control (4 mg b.i.d.)
  Patients with anaemia-related adverse event terms (grouped): 16%
[1]; control arm (4 mg b.i.d.)
  Convulsion (SAE possibly related to treatment), cases: 4
[1]; control patients (4 mg b.i.d.)
  Patients discontinuing for gastrointestinal or urinary adverse events: 1-2%
[1]; high dose LMTM
  Patients with anaemia-related adverse event terms (grouped): 22%
[1]; [3]
  Patients discontinuing for gastrointestinal adverse events: 9%
  Patients discontinuing for urinary tract adverse events: 3%
[1]; patients also receiving acetylcholinesterase inhibitors (data not shown)
  Incidence of gastrointestinal adverse events with co-medication: about two-fold higher
[2]; 4 mg twice a day
  Withdrawal rate over 18 months: 25%
[2]; 100 mg twice a day
  Withdrawal rate over 18 months: 46%
[2]; 100 mg twice a day monotherapy vs 4 mg twice a day as randomised, 4 mg twice a day monotherapy vs add-on, 18 months
  Revised analyses on ADAS-cog, ADCS-ADL, MRI atrophy and glucose uptake: statistically significant at the required threshold of p<0.025
[2]; after LMTM as monotherapy for 9 months, within-cohort comparison
  Annualised rate of whole brain atrophy: the rate was reduced to that reported for normal elderly controls
